Data as given in patent US20170362590A1, “PHARMACEUTICAL COMPOSITIONS COMPRISING MICRORNA” (OREGON HEALTH & SCIENCE UNIVERSITY, priority 2016, published 2017).

What was measured:
[1] = tested on: Matrigel plugs in nu/nu mice; assay: Matrigel plug angiogenesis assay in vivo
Protocol: (§1) Total RNA and microRNA were isolated using miRVana microRNA isolation kit (Ambion). Reverse transcription was performed using TaqMan™ Advanced cDNA Synthesis Kit (Life Tech) according to the manufacture instructions. RT-PCR was performed using multiplexed TaqMan primers (Applied Biosystems). The relative quantification of gene expression was determined using the 2-DDCtmethod. Using this method, we obtained the fold changes in gene expression normalized to an internal control gene, GAPDH or U6 snRNA, respectively. A DNA damage array (LifeTech) was used for targeting analysis and a Human Cellular Senescence array (SA Biosciences) was used for senescence phenotype profiling.
In some experiments, CD31a and Mre11a were visualized using immunofluorescence staining from OCT sections of tumor tissue. Slides were fixed with 4% PFA and stained overnight for CD31, Mre11a, or ASMC. Imaging was performed on a Nikon Spectral C1 confocal microscope (Nikon C1si with EZC1 acquisition software, Nikon Instruments) with Plan Apo 10×/0.45 air, Plan Apo 20×/0.75 air, and Plan Apo 60×/1.40 oil objective lenses (Nikon). Some immunofluorescence imaging was performed on a Yokogawa CSU-W1 spinning disk confocal microscope with 20 0.45 Plan Fluor objective (Nikon). All images were taken with a channel series. Images were analysed with Image J software for quantitation.
Immune-compromised 8-10 week old female nu/nu mice purchased from Jackson Labs. Growth factor reduced Matrigel (BD) with 400 ng ml 1 recombinant human bFGF (Millipore) was injected subcutaneously in nu/nu mice. Mice were injected i.v with 7C1-nanoparticles containing miR-494 or control miR (0.7 mg/kg, i.v) 3 or 4 days after plugs were implanted. At day 7 mice were harvest and lysed to obtained RNA or frozen in OCT for tissue staining.

[2] = tested on: murine 4T1 tumors; assay: Orthotopic 4T1 tumor growth; format: in vivo; conditions: implanted orthotopically in Balb/C mice
Text: FIG. 5C is a graph of 4T1 tumor weights on day 21 after orthotopic mammary fat pad implantation of either control or miR-494-3p transfected tumors. N=8 mice per group and * indicates P<0.05.

[3] = tested on: MRE11a, RAD50 and NBN; assay: Target validation in HUVEC (Western blot, qPCR); format: cell-based, human; conditions: qPCR and immunofluorescence
Protocol: After treatment, cells were washed in phosphate-buffered saline (PBS) and prepared in RIPA lysis buffer (Sigma) supplemented with Complete Protease inhibitor cocktail (ROCHE) and Phosphatase inhibitors cocktail 2 and 3 (Sigma). Cells were harvested by scraping, and proteins were analyzed by Western blot. Equivalent amounts of protein were loaded on a 4-12% gradient SDS-polyacrylamide gel (BioRAD) and transferred for 30 min to a TransBlot turbo (BioRAD) nitrocellulose membrane. Membranes were blocked in 5% milk or 3% BSA and incubated with antibodies as indicated: Mre11a (Cell Signaling, 4847, 1:1000), RAD50 (Cell Signaling, 3427, 1:1000), NBS1 (Cell Signaling, 14956, 1:500), p-ATM (Cell Signaling, 4526, 1:500), H2AX (Abcam 11174, 1:500), p21 (Cell Signaling, 2947, 1:1000), P-Rb (Cell Signaling, 9301, 1:500), ERK1/2 (Cell Signaling, 9102, 1:1000), P-ERK1/2 (9101, 1:1000). β-actin (Sigma, A5316, 1:10,000 1 h RT) was used as housekeeping controls for the total levels of protein loaded. Membranes were washed in TBST and incubated with secondary antibodies from Licor Biosciences were used goat anti mouse 925-68020 (1:15,000) and goat anti rabbit 925-32211 (1:15,000). […]
Total RNA and microRNA were isolated using miRVana microRNA isolation kit (Ambion). […] The relative quantification of gene expression was determined using the 2-DDCtmethod. […]

[4] = tested on: HUVEC; assay: 3-D angiogenic sprouting assay (fibrin bead); format: cell-based; conditions: 3D-fibrinogen assay, co-culture with human aortic smooth muscle cells
Protocol: Early passage HUVECs were coated on cytodex-3 (GE Healthcare) beads at a density of 10 million cells/40 μl beads and incubated in suspension for 3-4 hours with gentle mixing every hour. They were plated on TC treated 6 well dishes overnight and resuspended in a 2 mg/ml fibrin gel with 200,000 human smooth muscle cells. The gel was allowed to polymerize and complete EGM-2 media was added. Sprouts were visualized from days 3-4 via confocal imaging after overnight incubation with FITC labeled Ulex europaeus lectin (Vector labs). Immunofluorescence imaging was performed on a Yokogawa CSU-W1 spinning disk confocal microscope with 20 0.45 Plan Fluor objective (Nikon).

[5] = tested on: MRE11a, RAD50, and NBN mRNAs; assay: miR-TRAP/RISC TRAP assay; format: cell-based; conditions: 293 T cells, 24 hours
Protocol: 293 T cells were co-transfected with a plasmid coding for a flag-tagged dominant negative […] mutant (Clontech) along with a control mimic, miR-99b or miR-494 mimic according to kit instructions. Twenty-four hours later the RNA protein complexes were crosslinked and the RISC complex was immunoprecipitated using an anti-FLAG antibody and RNA was isolated for quantitative real-time PCR of target genes. The fold enrichment was calculated using pre and post IP controls as well as normalization to the control mimic pull-downs.

[6] = tested on: HUVEC; assay: HUVEC apoptosis; format: cell-based, human; conditions: overexpression for 48 hours
[7] = tested on: CD44; assay: CD44 expression (Human Senescence gene array); format: cell-based; conditions: HUVEC
Protocol: as §1
CD44 expression was analyzed by flow cytometry in HUVECs transfected with miR-494 for 48 hours. Cells were washed in PBS and tripsinazed. Cells were incubated in blocking solution (0.5% BSA/10% goat serum) for 30 min and 1 hour in primary antibody-PEcy7 conjugated (CD44, BD, 560533) prepared in blocking solution. Then cells were washed in PBS 3×. Cells were analyzed in a CANTOII equipment.

[8] = tested on: HUVEC; assay: β-Gal senescence assay; format: cell-based, human; conditions: for senescence (β-galactosidase positive cells): HUVEC, 48 hours after transfection, relative to controls
Text: After this time cells were washed whit cold PBS and then stain for β-galactosidase activity following manufacture protocol (Senescence Cells Histochemical Staining Kit, Sigma).

[9] = tested on: p21; assay: Western blot of p21 in HUVEC; format: cell-based, human; conditions: HUVEC expressing the miRNAs
Protocol: After treatment, cells were washed in phosphate-buffered saline (PBS) and prepared in RIPA lysis buffer (Sigma) supplemented with Complete Protease inhibitor cocktail (ROCHE) and Phosphatase inhibitors cocktail 2 and 3 (Sigma). Cells were harvested by scraping, and proteins were analyzed by Western blot. Equivalent amounts of protein were loaded on a 4-12% gradient SDS-polyacrylamide gel (BioRAD) and transferred for 30 min to a TransBlot turbo (BioRAD) nitrocellulose membrane. Membranes were blocked in 5% milk or 3% BSA and incubated with antibodies as indicated: Mre11a (Cell Signaling, 4847, 1:1000), RAD50 (Cell Signaling, 3427, 1:1000), NBS1 (Cell Signaling, 14956, 1:500), p-ATM (Cell Signaling, 4526, 1:500), H2AX (Abcam 11174, 1:500), p21 (Cell Signaling, 2947, 1:1000), P-Rb (Cell Signaling, 9301, 1:500), ERK1/2 (Cell Signaling, 9102, 1:1000), P-ERK1/2 (9101, 1:1000). β-actin (Sigma, A5316, 1:10,000 1 h RT) was used as housekeeping controls for the total levels of protein loaded. Membranes were washed in TBST and incubated with secondary antibodies from Licor Biosciences were used goat anti mouse 925-68020 (1:15,000) and goat anti rabbit 925-32211 (1:15,000). Blots were scanned on the Licor Odyssey scanner according to manufacturer's instructions.

[10] = tested on: telomerase activity in HUVEC; assay: Telomerase activity assay; format: cell-based, human; conditions: 48 hours of ectopic expression
Protocol: […] Cells were lysed and processed according to the manufacturer's instructions (Quantitative Telomerase Detection Kit, Allied Biotech). The telomerase activity in the cell extract was determined through its ability to synthesize telomeric repeats onto an oligonucleotide substrate. The resulting products were subsequently amplified using the polymerase chain reaction (PCR).

In the case of “miR-494: Human miR-494-3p (SEQ ID NO: 1), used as miR mimic; in vivo delivered in 7C1 nanoparticles (sense UGAAACAUACACGGGAAACCUC; delivered in vivo in 7C1 nanoparticles, further chemistry not given here; listed as Homo sapiens)”, the “Pecam1 mRNA expression in plugs relative to controls” value ([1]; Matrigel plugs, 7C1 nanoparticles) is reported as “lower expression”, the “less CD31 staining relative to controls” value ([1]; Matrigel plugs, miR delivered with endothelial targeted nanoparticle 7C1, 0.7 mg/kg i.v.) is reported as 50% and the “Mre11a mRNA expression in plugs” value ([1]; RNA isolated from Matrigel plugs, 7C1 nanoparticles) is reported as “significantly less Mre11a expression”. For the same substance, the “growth of 4T1 tumors” value [2] was “decreased the growth”, the “protein expression of target mRNAs (MRE11a, RAD50, NBN)” value [3] was “Blocking of protein expression” and the sprouting angiogenesis [4] was “inhibited sprouting angiogenesis”. For the same substance, the sprouting angiogenesis ([4]; listed as miR-494-3p) was “inhibit sprouting angiogenesis”, the “enrichment of target mRNAs in RISC pulldown relative to controls” value [5] was “enrichment of all of MRE11a, RAD50, and NBN” and the apoptosis [6] was “no effect on apoptosis”. The “expression of CD44, a marker of senescence” value [7] was “induced expression of CD44”, the “senescence (β-galactosidase positive cells)” value [8] was “higher number of β-galactosidase positive cells” and the “senescence (β-galactosidase positive cells)” value ([8]; listed as miR-494-3p) was “lead to endothelial senescence”. The “senescence phenotype in old HUVECs” value ([8]; high-passage HUVEC, β-galactosidase assay) was “restored a senescence phenotype”, the “expression of cell cycle regulator p21” value [9] was “greater expression” and the telomerase activity [10] was “Impaired telomerase activity”. The telomerase activity ([10]; listed as miR-494-3p) was “impairing telomerase function”.
